Test results reported in patent US20200397894A1, “COMPOSITIONS AND METHODS FOR TREATING CANCER” (University of Virginia Patent Foundation, priority 2016, published 2020).

Columns and labels:
VMM39 xenografts = experiment: Melanoma flank xenograft in nude mice; assay type: in vivo; settings: 60 mg/kg; p=1.8×10^−5
Procedure: (§1) All animal experiments were performed after approval of animal protocols by the Animal Care and Use Committee (ACUC) of the University of Virginia. Animals were housed and handled in accordance with the guidelines of the ACUC of the University of Virginia. The effect of pevonedistat on melanoma growth was tested in flank xenograft models. Foxn1^nu (20-25 g body weight, 4-5 weeks old females) athymic nude immune-deficient mice (Harlan Laboratories, now Envigo, Indianapolis, Ind., United States of America) were used in this study. Pevonedistat was dissolved in sterile 10% DMSO containing PBS (stock 1 mM), filtered, and stored in −20° C. until use. DM93, VMM39, SLM2, DM331, or SK-MEL-24 (2×10^6) melanoma cells were implanted in both flanks of immune-deficient mice (n=12 mice per group) and tumor growth was monitored until they grow to an average volume of 150-200 mm^3, and mice were randomized into groups for treatment. Animals were administered 0.2 mL pevonedistat solution (30 or 60 mg/kg body weight as indicated) intraperitoneally on a schedule of two cycles of five-day treatment followed by five treatment-free days, for 3 weeks, or more as indicated. Control animals were treated with an equal volume of sterile vehicle (10% DMSO in PBS). Where indicated, mice received control rodent diet, or rodent diet with 417 mg/kg PLX4720 (Research Diets, Inc. New Brunswick, N.J., United States of America). Tumors were measured with an electronic caliper every other day for 3 weeks post-drug injection. Animal weight was recorded once a week to detect any weight loss due to the toxicity of drug treatment or tumor burden. At the end of the treatment, animals were euthanized and tumors harvested for further processing. The results shown are mean tumor volumes±s.e.m; *p<0.05, **p<0.01, ***p<0.001.

DM331 xenografts = experiment: Melanoma flank xenograft in nude mice; assay type: in vivo; settings: vs. vehicle; PLX4720 in rodent diet 417 mg/kg
Procedure: as §1

[1] = tested on: DM331 and SK-MEL-24 cells from PLX4720-resistant tumors; experiment: In vitro sensitivity of cells extracted ex vivo from PLX4720-resistant tumors; assay type: cell-based, human; settings: DM331 and SK-MEL-24 cells extracted ex vivo
Procedure: Proliferation and viability of cultured cells was measured by CELLTITER96® Non-radioactive Cell Proliferation Assay (Promega Corporation; Madison, Wis., United States of America). Briefly, various wild type and mutant BRAF melanoma cells were seeded in 96 well plates and treated with pevonedistat, vemurafenib, or the combination pevonedistat and vemurafenib at various concentrations. Control cells were treated with DMSO. 96 hours following treatment, cells were stained with the dye solution according to the manufacturer's protocol. Absorbance was recorded at 570 nm and growth curves were established. […] Cells were counted every 24 hours using a COUNTESS™ Automated Cell Counter (INVITROGEN™, Carlsbad, Calif., United States of America), and harvested at the indicated times for PI staining and FACS analysis (cell cycle profile) or for immunoblotting.
The effects of pevonedistat, vemurafenib, and/or silencing of various cell cycle-associated proteins by siRNA on cell cycle distribution and rereplication were assessed by propidium iodide staining and flow cytometry of asynchronous melanoma cultures. […]

DM93 cells = experiment: Cell cycle distribution and rereplication by propidium iodide staining and FACS; assay type: cell-based, human; settings: for DM93 cells exhibiting >4N DNA content / Percent Cells in S and G2/M / Percent Cells in sub-G1: 1 μM pevonedistat; for Percent Cells in S and G2/M / Percent Cells in sub-G1 / Percent of Cells in S and G2/M / Percent of Cells in sub-G1: DM93 cells; for rereplication after transient exposure and washout: analyzed 48 hours later
Procedure: The effects of pevonedistat, vemurafenib, and/or silencing of various cell cycle-associated proteins by siRNA on cell cycle distribution and rereplication were assessed by propidium iodide staining and flow cytometry of asynchronous melanoma cultures. Synchronization of cells was not employed to avoid bias and to be able to measure the impact of these perturbations on proliferating cancer cells. […] Cells were washed with cold PBS, harvested, and fixed in 70% (v/v) ethanol. Cells were subsequently treated with 20 μg of DNase-free RNase and stained with propidium iodide according to instructions of the manufacturer. Samples were analyzed on a FACSCAN™ (Becton, Dickinson and Company, Franklin Lakes, N.J., United States of America) and G0-G1, S, and G2-M fractions were segmented, and apoptotic (sub-G1 DNA content) and rereplicating (>G2/M DNA content) fractions were determined using FLOWJO® (FLOWJO, LLC, Ashland, Oreg., United States of America) and ModFit (Verity Software House, Topsham, Me., United States of America) software.

[2] = tested on: non-malignant melanocytes PIG3V; experiment: Rereplication by FACS in non-malignant melanocytes; assay type: cell-based, human; settings: 48 hours following treatment
Procedure: The effects of pevonedistat, vemurafenib, and/or silencing of various cell cycle-associated proteins by siRNA on cell cycle distribution and rereplication were assessed by propidium iodide staining and flow cytometry of asynchronous melanoma cultures. Synchronization of cells was not employed to avoid bias and to be able to measure the impact of these perturbations on proliferating cancer cells. Briefly, asynchronous melanoma cell lines were treated with pevonedistat or vemurafenib, or transfected with si-CDT1, si-CDT2, si-SET8, si-p21, sigeminin, si-EMI1, or si-GL2 for a time ranging from 24 to 96 hours. Cells were washed with cold PBS, harvested, and fixed in 70% (v/v) ethanol. Cells were subsequently treated with 20 μg of DNase-free RNase and stained with propidium iodide according to instructions of the manufacturer. Samples were analyzed on a FACSCAN™ (Becton, Dickinson and Company, Franklin Lakes, N.J., United States of America) and G0-G1, S, and G2-M fractions were segmented, and apoptotic (sub-G1 DNA content) and rereplicating (>G2/M DNA content) fractions were determined using FLOWJO® (FLOWJO, LLC, Ashland, Oreg., United States of America) and ModFit (Verity Software House, Topsham, Me., United States of America) software.

[3] = 24 hours, 0.025 μM pevonedistat
[4] = 24 hours, 0.100 μM pevonedistat
[5] = 24 hours, 0.500 μM pevonedistat (first row so printed, r9)
[6] = 24 hours, 0.500 μM pevonedistat (r11)
[7] = 24 hours, 0.750 μM pevonedistat
[8] = 24 hours, 1.000 μM pevonedistat
[9] = 24 hours, 2.000 μM pevonedistat

`NS(=O)(=O)OCC1CC(n2ccc3c(NC4CCc5ccccc54)ncnc32)CC1O` [pevonedistat, ((1S,2S,4R)-4-(4-((1S)-2,3-Dihydro-H-inden-1-ylamino)-7H-pyrrolo(2,3-d)pyrimidin-7-yl)-2-hydroxycyclopentyl)methyl sulphamate] was tested, and the “growth of VMM39 xenografts” value (VMM39 xenografts) was “significantly inhibited the growth”, the “growth of DM331 xenografts” value (DM331 xenografts) was “inhibited” and the “sensitivity in vitro of cells from PLX4720-resistant tumors” value [1] was “sensitive to pevonedistat-induced rereplication and inhibition”. For the same compound, the “DM93 cells exhibiting >4N DNA content” value (DM93 cells; by 72 hours of treatment) was 68%, the “DM93 cells exhibiting >4N DNA content” value (DM93 cells; within 24 hours) was 18% and the cells undergoing rereplication (DM93 cells; DM93, 1 μM pevonedistat for 48 hours) was 45%. For the same compound, the “Percent of Cells in S and G2/M at 24 hours” value (DM93 cells; DM93, 1 μM pevonedistat, 24 hours) was 27.2%, the “Percent of Cells in S and G2/M at 72 Hours” value (DM93 cells; DM93, 1 μM pevonedistat, 72 hours) was 59.2% and the cells undergoing rereplication (DM93 cells; DM93, 72 hours post-treatment) was 60%. For the same compound, the “lowest drug concentration at which rereplication was observed” value (DM93 cells; DM93, analyzed at 24 hours) was 500 nM, the “cells with sub-G1 DNA content” value (DM93 cells; DM93, pevonedistat, 72 hours) was ~7% and the “Percent Cells in S and G2/M” value (DM93 cells; 3 hours) was 4.05%. The “Percent Cells in sub-G1” value (DM93 cells; 3 hours) was 1.94%, the “Percent Cells in S and G2/M” value (DM93 cells; 6 hours) was 13% and the “Percent Cells in sub-G1” value (DM93 cells; 6 hours) was 0.49%. For the same compound, the “Percent Cells in S and G2/M” value (DM93 cells; 24 hours) was 17%, the “Percent Cells in sub-G1” value (DM93 cells; 24 hours) was 1.4% and the “Percent Cells in S and G2/M” value (DM93 cells; 48 hours) was 64.7%. The “Percent Cells in sub-G1” value (DM93 cells; 48 hours) was 2.08%, the “Percent Cells in S and G2/M” value (DM93 cells; 72 hours) was 68.3% and the “Percent Cells in sub-G1” value (DM93 cells; 72 hours) was 7.08%. For the same compound, the “Percent of Cells in S and G2/M” value (DM93 cells; [3]) was 0.57%, the “Percent of Cells in sub-G1” value (DM93 cells; [3]) was 1.72% and the “Percent of Cells in S and G2/M” value (DM93 cells; [4]) was 2.21%. The “Percent of Cells in sub-G1” value (DM93 cells; [4]) was 5.62%, the “Percent of Cells in S and G2/M” value (DM93 cells; [5]) was 1.11% and the “Percent of Cells in sub-G1” value (DM93 cells; [5]) was 1.61%. For the same compound, the “Percent of Cells in S and G2/M” value (DM93 cells; [6]) was 18.1%, the “Percent of Cells in sub-G1” value (DM93 cells; [6]) was 4.49% and the “Percent of Cells in S and G2/M” value (DM93 cells; [7]) was 47.4%. For the same compound, the “Percent of Cells in sub-G1” value (DM93 cells; [7]) was 2.05%, the “Percent of Cells in S and G2/M” value (DM93 cells; [8]) was 56.6% and the “Percent of Cells in sub-G1” value (DM93 cells; [8]) was 1.21%. For the same compound, the “Percent of Cells in S and G2/M” value (DM93 cells; [9]) was 66%, the “Percent of Cells in sub-G1” value (DM93 cells; [9]) was 0.53% and the “rereplication after transient exposure and washout” value (DM93 cells; treated 12 hours) was 18%. For the same compound, the “rereplication after transient exposure and washout” value (DM93 cells; treated 24 hours) was 60% and the rereplication [2] was “less than 3%”.
